{"source": "ChEMBL document CHEMBL1201862", "about": "“PubChem BioAssay data set” (2004)", "key": {"[1]": {"assay": "NIH-3T3 fibroblast cytotoxicity, dose response, cytotoxicity control, cell-based, fluorescence, Alamar Blue, secondary assay (AID 2327);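 also: NIH-3T3 mouse fibroblasts cultured with fluconazole at 8 µg/mL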", "type": "functional"}, "[2]": {"assay": "inhibitors of firefly luciferase expression or activity, dose response, H4 neuroglioma cells, luminescence (AID 1990)", "type": "functional, cell-based"}, "[3]": {"test_system": "BJ", "assay": "cytotoxicity toward BJ-TERT fibroblasts, dose response, cell-based, RAS-independent, luminescence (AID 1933)", "type": "functional", "conditions": "Homo sapiens"}, "[4]": {"assay": "Luminescence Cell-Based Dose Response HTS to Identify Inhibitors of 5'UTR Stem-Loop Driven Prion Protein mRNA Translation in H4 Neuroglioblastoma Cells. [Related pubchem assays: 1827 (Project Summary), 1813 (Primary HTS)]", "type": "functional"}, "[5]": {"assay": "inhibitors of SNCA 5'UTR-driven reporter translation, confirmation, H4 neuroglioma cells, luminescence (AID 1988)", "type": "functional, cell-based"}, "[6]": {"test_system": "BJ", "assay": "cells", "type": "functional, cell-based", "conditions": "Homo sapiens"}, "[7]": {"assay": "C. albicans growth with fluconazole, confirmation, fluorescence, retest (AID 2467)", "type": "functional, cell-based"}, "[8]": {"assay": "Luminescence-based dose response cell-based high throughput screening assay for cytotoxic compounds using the IEC-6 intestinal epithelial cell line. [Related pubchem assays: 1858 (Summary AID.), 1825 (Counterscreen.), 1907 (Confirmation screen.)]", "type": "functional"}, "[9]": {"assay": "growth suppression of PTEN-null colon cells, dose response, cell-based, HCT116 PTEN knockout (AID 1047);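 also: HCT116 colon tumor cells with PTEN knocked out; cells exposed to compound for 60 hours before readout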", "type": "functional"}, "[10]": {"biological_target": "T1, Serine/threonine-protein phosphatase (Candida dubliniensis (strain CD36 / CBS 7987 / NCPF 3949 / NRRLY-17841) (Yeast), UniProt B9W6M3)", "T1 sequence (B9W6M3 whole entry)": "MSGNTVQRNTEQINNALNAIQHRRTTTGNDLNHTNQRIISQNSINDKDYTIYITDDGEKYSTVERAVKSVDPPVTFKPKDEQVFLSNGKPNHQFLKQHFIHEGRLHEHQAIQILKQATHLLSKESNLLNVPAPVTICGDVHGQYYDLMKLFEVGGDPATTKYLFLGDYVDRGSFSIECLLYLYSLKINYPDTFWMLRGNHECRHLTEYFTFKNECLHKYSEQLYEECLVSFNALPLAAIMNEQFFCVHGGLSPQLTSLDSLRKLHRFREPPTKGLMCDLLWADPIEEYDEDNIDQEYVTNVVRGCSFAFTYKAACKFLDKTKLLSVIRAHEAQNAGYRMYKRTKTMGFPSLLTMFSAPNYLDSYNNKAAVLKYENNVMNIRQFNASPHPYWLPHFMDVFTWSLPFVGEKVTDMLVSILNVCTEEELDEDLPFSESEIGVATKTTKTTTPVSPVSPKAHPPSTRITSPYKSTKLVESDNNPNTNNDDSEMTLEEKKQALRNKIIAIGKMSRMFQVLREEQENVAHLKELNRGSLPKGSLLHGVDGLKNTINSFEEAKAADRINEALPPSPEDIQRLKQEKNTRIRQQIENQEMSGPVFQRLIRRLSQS", "assay": "calcineurin pathway inhibitors in yeast reporter, dose response, S. cerevisiae, CDRE-lacZ, luminescence, secondary (AID 2388);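 also: yeast reporter cells carrying a calcineurin-responsive lacZ construct stimulated with calcium chloride; luminescent beta-galactosidase reporter signal in whole cells rather than isolated phosphatase activity; potency for inhibition where a drop in reporter signal means calcineurin blockade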", "type": "functional, cell-based"}, "[11]": {"assay": "growth suppression of beta-catenin-knockout colon cells, dose response, cell-based, HCT116, human colon tumor (AID 1045);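 also: HCT116 colon tumor cells with beta catenin knocked out; cells exposed to compound for 60 hours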", "type": "functional"}, "[12]": {"test_system": "BJ", "assay": "cytotoxicity toward BJ-TERT-LT-ST fibroblasts, dose response, cell-based, RAS-independent, luminescence (AID 1935);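 also: BJ fibroblasts immortalized with TERT plus LT and ST oncogenes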", "type": "functional", "conditions": "Homo sapiens"}, "[13]": {"assay": "cytotoxicity toward DRD oncogenic fibroblasts, dose response, cell-based, non-viral oncogenic, luminescence (AID 1934)", "type": "functional", "conditions": "Homo sapiens"}, "[14]": {"test_system": "BJ", "assay": "cytotoxicity toward Ras-transformed BJeLR fibroblasts, dose response, cell-based, alamar blue fluorescence, cherrypicked samples (AID 2631)", "type": "functional", "conditions": "Homo sapiens"}, "[15]": {"biological_target": "ATP-dependent molecular chaperone HSP82 (Candida albicans (strain WO-1) (Yeast), UniProt C4YTQ8)", "sequence (C4YTQ8 whole entry)": "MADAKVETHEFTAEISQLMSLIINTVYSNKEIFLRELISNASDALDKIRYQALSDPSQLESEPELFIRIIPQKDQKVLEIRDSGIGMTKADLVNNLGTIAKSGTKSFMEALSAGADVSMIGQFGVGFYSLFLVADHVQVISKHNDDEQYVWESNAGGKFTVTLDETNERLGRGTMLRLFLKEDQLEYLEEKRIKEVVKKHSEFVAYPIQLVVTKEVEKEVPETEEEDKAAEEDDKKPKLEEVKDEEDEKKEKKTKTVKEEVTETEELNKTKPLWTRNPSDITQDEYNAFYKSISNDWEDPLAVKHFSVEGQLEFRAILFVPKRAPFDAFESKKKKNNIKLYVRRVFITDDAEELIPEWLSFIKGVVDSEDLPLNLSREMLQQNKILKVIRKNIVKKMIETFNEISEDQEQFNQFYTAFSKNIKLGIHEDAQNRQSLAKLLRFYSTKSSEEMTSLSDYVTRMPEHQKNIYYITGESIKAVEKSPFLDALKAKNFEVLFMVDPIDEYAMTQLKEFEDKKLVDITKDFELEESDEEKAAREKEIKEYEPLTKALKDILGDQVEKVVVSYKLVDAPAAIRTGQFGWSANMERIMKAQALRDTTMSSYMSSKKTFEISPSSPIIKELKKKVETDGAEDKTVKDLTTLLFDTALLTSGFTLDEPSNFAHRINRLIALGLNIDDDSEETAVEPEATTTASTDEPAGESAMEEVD", "assay": "loss of DOC-induced GRE-beta-galactosidase reporter signal, dose response, Hsp90 inhibitor project, S. cerevisiae, luminescence (AID 2400);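 also: beta-galactosidase luminescence from glucocorticoid response element reporter as proxy for Hsp90 function; inhibitor potency where signal loss means Hsp90 inhibition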", "type": "functional, cell-based"}, "[16]": {"biological_target": "Melanocortin receptor 4 (Homo sapiens, UniProt P32245)", "sequence (P32245 whole entry)": "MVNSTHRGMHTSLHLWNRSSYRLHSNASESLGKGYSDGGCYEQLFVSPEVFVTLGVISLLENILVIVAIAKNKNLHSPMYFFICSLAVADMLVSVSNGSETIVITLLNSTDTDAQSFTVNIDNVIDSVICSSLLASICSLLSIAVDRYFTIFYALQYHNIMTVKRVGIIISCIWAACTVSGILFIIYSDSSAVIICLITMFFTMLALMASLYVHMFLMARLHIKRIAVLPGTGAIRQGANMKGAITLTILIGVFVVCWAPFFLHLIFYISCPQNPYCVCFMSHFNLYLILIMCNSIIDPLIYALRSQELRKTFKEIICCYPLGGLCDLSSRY", "assay": "MC4R antagonist potency on cAMP, dose response, cell-based, TR-FRET, biased antagonists (AID 602298);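 also: antagonist potency against agonist-stimulated cAMP production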", "type": "functional"}, "[17]": {"assay": "nonselective inhibitors of cellular cAMP signaling, dose response, counter-screen for MC4R biased antagonist project, cell-based, TR-FRET cAMP detection (AID 602305);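 also: U2OS cells stimulated with forskolin near its EC80 as the cAMP inducer; potency is for inhibition of forskolin-stimulated cAMP signaling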", "type": "functional"}, "[18]": {"biological_target": "Paired box protein Pax-8 (Homo sapiens, UniProt Q06710)", "sequence (Q06710 whole entry)": "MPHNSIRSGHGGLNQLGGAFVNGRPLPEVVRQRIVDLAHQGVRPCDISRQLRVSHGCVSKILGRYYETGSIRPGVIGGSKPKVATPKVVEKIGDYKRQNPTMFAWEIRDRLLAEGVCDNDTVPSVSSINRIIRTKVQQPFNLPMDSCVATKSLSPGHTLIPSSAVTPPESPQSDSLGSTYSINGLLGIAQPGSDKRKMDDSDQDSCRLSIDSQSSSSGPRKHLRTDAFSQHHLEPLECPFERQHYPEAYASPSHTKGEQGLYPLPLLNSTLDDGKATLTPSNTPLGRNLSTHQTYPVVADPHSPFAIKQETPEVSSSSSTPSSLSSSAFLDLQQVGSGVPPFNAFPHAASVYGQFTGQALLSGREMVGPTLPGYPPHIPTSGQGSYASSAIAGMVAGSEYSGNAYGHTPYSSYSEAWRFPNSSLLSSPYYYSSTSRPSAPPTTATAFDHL", "assay": "inhibitors of PAX8-driven TPO luciferase reporter, dose response, RMG-I cells, cherry-pick (AID 687027);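 also: luciferase reporter driven by Pax8 target thyroperoxidase promoter measured by SteadyGlo luminescence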", "type": "functional, cell-based"}, "[19]": {"biological_target": "T2, Estrogen receptor (Homo sapiens, UniProt P03372)", "T2 sequence (P03372 whole entry)": "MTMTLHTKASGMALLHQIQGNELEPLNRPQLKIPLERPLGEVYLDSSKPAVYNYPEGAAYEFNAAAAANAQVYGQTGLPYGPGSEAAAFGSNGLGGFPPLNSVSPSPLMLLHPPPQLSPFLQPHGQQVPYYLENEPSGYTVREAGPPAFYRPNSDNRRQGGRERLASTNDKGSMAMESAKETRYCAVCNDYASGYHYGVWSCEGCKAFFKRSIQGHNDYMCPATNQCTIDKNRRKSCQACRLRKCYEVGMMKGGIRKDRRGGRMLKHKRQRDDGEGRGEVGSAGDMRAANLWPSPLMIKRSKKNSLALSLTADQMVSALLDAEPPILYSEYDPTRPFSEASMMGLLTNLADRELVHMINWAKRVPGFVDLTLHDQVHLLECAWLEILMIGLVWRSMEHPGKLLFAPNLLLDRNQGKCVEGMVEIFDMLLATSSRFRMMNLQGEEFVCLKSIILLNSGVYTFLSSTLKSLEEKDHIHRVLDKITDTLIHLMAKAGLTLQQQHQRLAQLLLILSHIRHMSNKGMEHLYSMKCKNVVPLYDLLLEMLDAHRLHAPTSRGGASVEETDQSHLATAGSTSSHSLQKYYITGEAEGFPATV"}, "[20]": {"biological_target": "T3, Estrogen receptor beta (Homo sapiens, UniProt Q92731)", "T3 sequence (Q92731 whole entry)": "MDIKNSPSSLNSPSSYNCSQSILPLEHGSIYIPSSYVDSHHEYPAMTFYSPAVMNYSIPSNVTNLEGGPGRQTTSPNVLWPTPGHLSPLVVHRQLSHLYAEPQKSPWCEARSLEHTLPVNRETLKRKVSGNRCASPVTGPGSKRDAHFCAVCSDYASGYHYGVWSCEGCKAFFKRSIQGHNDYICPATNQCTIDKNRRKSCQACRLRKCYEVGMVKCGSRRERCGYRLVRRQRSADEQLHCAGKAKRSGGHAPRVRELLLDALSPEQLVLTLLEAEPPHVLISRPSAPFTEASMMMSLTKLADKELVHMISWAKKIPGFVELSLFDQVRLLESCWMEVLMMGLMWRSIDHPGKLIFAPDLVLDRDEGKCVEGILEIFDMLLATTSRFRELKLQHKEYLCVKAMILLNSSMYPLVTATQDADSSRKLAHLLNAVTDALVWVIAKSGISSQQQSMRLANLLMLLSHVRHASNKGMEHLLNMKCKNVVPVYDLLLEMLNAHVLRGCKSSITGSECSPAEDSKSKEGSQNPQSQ"}, "[21]": {"biological_target": "T3, Estrogen receptor beta", "assay": "ERβ–SRC-3 coactivator interaction inhibitors, confirmation, orthogonal assay, biochemical, ELISA, streptavidin-HRP readout (AID 1060)"}}, "note": "The source made the active and inactive calls. Rule as the data show it, for most assays here: actives have a measured EC50 and inactives only a lower limit.", "data": [{"smiles": "O=C(NC(Nc1nc2ccc([N+](=O)[O-])cc2s1)(C(F)(F)F)C(F)(F)F)c1ccccc1Cl", "values": [{"measurement": "EC50", "setting": "[1]", "value": "12300 nM (active)"}, {"measurement": "EC50", "setting": "[2]", "value": "266 nM (active)"}, {"measurement": "EC50", "setting": "[3]", "value": "1350 nM (active)"}, {"measurement": "EC50", "setting": "[4]", "value": "6530 nM (active)"}, {"measurement": "EC50", "setting": "[5]", "value": "242 nM (active)"}, {"measurement": "EC50", "setting": "[6]", "value": "1410 nM (active)"}, {"measurement": "EC50", "setting": "[7]", "value": "758 nM (active)"}, {"measurement": "IC50", "setting": "[8]", "value": "1640 nM (active)"}, {"measurement": "EC50", "setting": "[9]", "value": "234 nM (active)"}, {"measurement": "EC50", "setting": "[10]", "value": "> 180000 nM (inactive)"}, {"measurement": "EC50", "setting": "[11]", "value": "242 nM (active)"}, {"measurement": "EC50", "setting": "[12]", "value": "5650 nM (inconclusive)"}, {"measurement": "EC50", "setting": "[13]", "value": "1810 nM (active)"}, {"measurement": "EC50", "setting": "[14]", "value": "1110 nM (active)"}, {"measurement": "EC50", "setting": "[15]", "value": "22600 nM (active)"}, {"measurement": "IC50", "setting": "[16]", "value": "> 64600 nM (inactive)"}, {"measurement": "IC50", "setting": "[17]", "value": "> 64600 nM (inactive)"}, {"measurement": "AC50", "setting": "[18]", "value": "676 nM (active)"}]}, {"smiles": "O=Cc1ccc2oc3nc4n(c(=O)c3c(=O)c2c1)CCCS4", "values": [{"measurement": "IC50", "setting": "[19]", "value": "17800 nM (active)"}, {"measurement": "IC50", "setting": "[20]", "value": "> 50000 nM (not active)"}, {"measurement": "IC50", "setting": "[21]", "value": "> 50000 nM (not active)"}]}]}
